Measured values published in patent US8426179B2, “Synthetic peptide and peptide conjugates and related tissue coupling methods via transglutaminase enzyme” (priority 2007, dated 2013).
Entries after “also recorded” stand apart in the source; their conditions may differ. Residues, ends and D or L forms follow the SMILES beside them. *: point of attachment. X1 = C[C@]12CCC(=O)C=C1CC[C@@H]1[C@@H]2[C@@H](O)C[C@@]2(C)[C@H]1CC[C@]2(O)C(=O)COC(=O)CCC(=O)*

Columns and labels:
cartilage sections = test: Coupling of peptide conjugates to cartilage sections via tTG, fluorescein anti-biotin staining; format: biochemical, bovine
Protocol: Partial depolymerization of glycosaminoglycans in the tissue was accomplished by digesting with chondroitinase ABC at 40 mU/mL in 50 mM Tris, 70 mM sodium acetate and 0.01% bovine serum albumin (BSA) at pH 8 for 30 minutes at 37° C. Samples were then rinsed 3 times with TBS and blocked with 1% BSA in TBS for one hour at room temperature. The tTG reaction conditions used were similar to a previously described method. (See, Aeschlimann D, Wetterwald A, Fleisch H, and Paulsson M. Expression of tissue transglutaminase in skeletal tissues correlates with events of terminal differentiation of chondrocytes. Journal of Cell Biology 1993; 120: 1461-1470.) The cartilage sections were incubated in 500 μL of 50 μM peptide or peptide-PEG conjugate, 0.5 U/mL tTG, 5 mM CaCl2, 2.5 mM dithiothreitol and 100 mM Tris, at pH 8.3 for 30 min at 37° C. Control experiments were performed in the absence of tTG. After completion of the tTG reaction, the solution was removed and samples were rinsed 3 times with 1% BSA in TBS for 5 minutes each. The cartilage sections were then incubated with fluorescein conjugated anti-biotin antibody at 10 μg/mL in 1% BSA in TBS for 2 hours at room temperature. Samples were rinsed 4 times with TBS for 5 minutes each, followed by blocking with 10% donkey serum for 1 hour and incubation with rabbit anti-collagen II antibody in TBS containing 10% donkey serum for 1 hour. The samples were rinsed 3 times with 10% donkey serum in TBS and then incubated with Texas Red conjugated donkey anti-rabbit antibody. Samples were rinsed again with TBS and then imaged using a Leica epifluorescent microscope (λex=495 nm, λem=520 for fluorescein and λex=596 nm, λem=620 for Texas Red) and a SPOT RT digital camera (Diagnostic Instruments, Sterling Heights, Mich.).
Images were analyzed using Metamorph image analysis software (Molecular Devices, Sunnyvale, Calif.). Fluorescein fluorescence was measured at three randomly selected areas of the middle zone on each cartilage section image and then averaged. A similar procedure was utilized to determine Texas Red fluorescence. The fluorescein fluorescence intensity was then normalized to the fluorescence of the Texas Red for each cartilage section image in order to account for potential ECM differences between sections. Finally, the average green fluorescence for each peptide-PEG conjugate was then normalized by dividing by the red fluorescence.

osteonectin = molecular target: T1, osteonectin (Homo sapiens, UniProt P09486); test: Reaction of peptide conjugates with cartilage ECM protein in solution via tTG; format: biochemical; details: for number of conjugate molecules coupled per protein (MALDI-TOF): osteonectin with tTG; for reactivity / normalized band intensity on western blot: osteonectin, 500 μM conjugate, 0.05 U/mL tTG, 30 min at 37° C.
T1 construct: purchased Biodesign, Saco, Me
T1 sequence (P09486 18-303): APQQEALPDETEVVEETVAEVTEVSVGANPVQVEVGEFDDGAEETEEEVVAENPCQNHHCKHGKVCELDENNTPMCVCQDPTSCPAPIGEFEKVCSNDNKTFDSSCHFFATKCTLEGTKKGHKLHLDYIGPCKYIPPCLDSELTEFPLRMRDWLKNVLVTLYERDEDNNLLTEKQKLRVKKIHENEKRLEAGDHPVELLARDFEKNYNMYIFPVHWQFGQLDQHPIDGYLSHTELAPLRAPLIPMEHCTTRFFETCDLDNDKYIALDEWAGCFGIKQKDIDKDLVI
Protocol: (§1) Fibronectin, collagen II, osteonectin, and osteopontin were separately combined at 0.1% (w/v) in 100 mM Tris and 5 mM CaCl2 with 500 μM peptide-PEG conjugates and 0.05 U/mL tTG. The reaction was allowed to proceed for 30 min at 37° C. and then stopped with the addition of iodoacetamide (1 mM final concentration). Control experiments without transglutaminse were also performed. The proteins were then separated using SDS-PAGE with either 7.5% fibronectin and collagen II) or 10% (osteonectin and osteopontin) gels, transferred to PVDF membranes which were then blocked with 2% BSA in TBS with 0.1% Tween (TBS-T). The modified proteins were probed with peroxidase conjugated ExtrAvidin. Detection of bound ExtrAvidin was accomplished using ECL Plus Western Blotting Detection Reagents and imaged on a Storm 860 imager (GE Healthcare Biosciences, Piscataway, N.J.). Band intensities were measured using ImageQuant (GE Healthcare Biosciences). Statistical analysis was performed using one-way ANOVA and Tukey's post-hoc test with 95% confidence intervals with SPSS (SPSS, Chicago, Ill.). Reactions of B72Q and B72K with osteonectin and osteopontin were dialyzed against 10 mM acetic acid and then analyzed by MALDI-TOF MS.

collagen II = molecular target: T2, collagen II (Homo sapiens, UniProt P02458); test: as above; format: biochemical; details: type II collagen, 500 μM conjugate, 0.05 U/mL tTG, 30 min at 37° C.
T2 construct: isolated by pepsin digestion, which yields primarily the triple helical region of collagen II; purchased Chondrex, Redmond, Wash
Protocol: as §1

osteopontin = molecular target: T3, osteopontin (Homo sapiens, UniProt P10451); test: as above; format: biochemical; details: for number of conjugate molecules coupled per protein (MALDI-TOF): osteopontin with tTG; for reactivity / normalized band intensity on western blot: osteopontin, 500 μM conjugate, 0.05 U/mL tTG, 30 min at 37° C.
T3 construct: purchased R&D Systems, Minneapolis, Minn
Protocol: as §1

Fibronectin = molecular target: T4, Fibronectin (Homo sapiens, UniProt P02751); test: as above; format: biochemical; details: 500 μM conjugate, 0.05 U/mL tTG, 30 min at 37° C.
T4 construct: purchased Sigma, St. Louis, Mo
Protocol: as §1

cartilage = details: for average depth of peptide coupling: with tTG, chondroitinase ABC digested cartilage, along the cut edge
Protocol: For the coupling of peptide conjugates to cartilage sections, osteochondral plugs were extracted from adult bovine metacarpophalangeal joints using a hole punch with a diameter of 0.793 cm. Samples were then frozen in tissue freezing media and stored at −80° C. until use. Vertical sections (25 μm), which included the articular surface as well as a portion of the underlying bone, were cut using a cryostat (Microm HM505N, Carl Zeiss) and the freezing media was removed with 3 washes of Tris buffered saline (TBS) (50 mM Tris, 100 mM NaCl) at pH 7.4. For the penetration studies, four millimeter by two millimeter rectangular samples of cartilage were excised from adult bovine metacarpophalangeal joint to a depth of 200-250 microns from the articular surface. Samples were frozen as described earlier for later use, at which time they were thawed and rinsed in TBS.
Four millimeter by two millimeter rectangular samples of cartilage were thawed and rinsed, after which the chondroitinase ABC digestion and tTG reactions with the peptide and peptide-PEG conjugates were performed as stated above. […] The samples were then frozen in tissue freezing media followed by cutting using a cryostat. Twenty micron thick vertical sections were collected from each cartilage piece, rinsed in TBS, blocked with 1% BSA TBS containing 0.1% Tween (TBST), and incubated with peroxidase conjugated anti-biotin antibody at 5 μg/mL in 1% BSA in TBS-T for 2 hours at room temperature. Samples were rinsed 4 times with TBS and 4 times with distilled water. Finally, the anti-biotin antibody was detected using a DAB kit which contains the peroxidase substrate 3,3′-diaminobenzidine yielding a brown color. Samples were imaged using a Leica microscope (brightfield) and a SPOT RT digital camera.
Adobe Photoshop (Adobe, Inc, San Jose, Calif.) was used to measure the depth to which the peptide and peptide-PEG conjugates were detected. The depth of staining into the cartilage along the cut surface perpendicular to the articular surface was measured at distances of 60, 120 and 180 microns from the articular surface for each sample. The average depth of staining for each sample was calculated from these three measurements. For each peptide and peptide-PEG conjugate, an overall mean depth of staining was determined from the measurements of three samples.
In a separate series of experiments, 2 mm by 4 mm by 200-250 μm pieces of cartilage were incubated with each peptide-PEG conjugate and tTG. At the completion of the reaction, the cartilage pieces were frozen and sectioned and the coupled peptide conjugates were detected with a perioxidase anti-biotin antibody. The bound antibody was detected with DAB reagent which forms a brown precipitate in the presence of perioxidase. […] The depth of peptide penetration and coupling was measured along the cut edge at 60, 120, and 180 μm from the articular surface as shown schematically in FIG. 6.

[1] = system: articular surface of cartilage; test: Coupling of hydrocortisone prodrugs to the articular surface of cartilage via tTG; format: biochemical, bovine; details: in the absence of tTG
Protocol: Modified tissue samples were immersed in tissue freezing media and frozen at −80° C. until use. Tissue slices (25 μm thick) were cut using a cryostat (Microm HM505N, Carl Zeiss) and the freezing media was removed with 3 washes of Buffer 1. Blocking was performed with 4% goat serum in Buffer 1 (blocking buffer) for 1 hour at room temperature. The tissue sections were then incubated with 10 μg/mL mouse anti-hydrocortisone antibody for 1.5 h in the blocking buffer at room temperature, rinsed 3 times with Buffer 1 for 5 minutes each, and then incubated with fluorescein conjugated goat anti-mouse antibody (1/200) in blocking buffer for 1 hour. Samples were rinsed again with Buffer 1 and then imaged using a Leica epifluorescent microscope (λex=495 nm, λem=520 nm for fluorescein) and a SPOT RT digital camera (Diagnostic Instruments, Sterling Heights, Mich.).

[2] = Release of hydrocortisone from coupled prodrugs on the articular surface of cartilage
Protocol: After the overnight rinse in Buffer 2 with protease inhibitors and the subsequent washes with Buffer 1, each sample was incubated in 100 μL of sterile Buffer 1, normal bovine synovial fluid, or human osteoarthritic synovial fluid at 37° C. […] At the end of the experiment, the samples were digested and analyzed as previously described.

[3] = Hydrolysis of the hydrocortisone prodrug in normal synovial fluid; format: in vitro ADME, bovine
Protocol: A 30 μL portion of each sample was collected at 0.5, 1, 2, 4, 7, 24, and 48 hours and added to a 60 μL mixture of water:acetonitrile:TFA (79:20:1) to prevent further hydrolysis. This solution also contained 2 mM 6α-methyl prednisolone as an internal standard. The samples were then stored at −20° C. until analyzed with RP-HPLC and eluted with a linear gradient of 24-55% acetonitrile in water with 0.1% TFA. The amount of hydrocortisone hydrolyzed from the prodrug was determined by comparing its peak area to that of 6α-methyl prednisolone. The T50% of the prodrug was calculated from 0.693/S, where S is the mean slope giving the best correlation coefficient in the linear part of the logarithmic curve of unhydrolyzed prodrug (1-[hydrocortisone]) versus time. […] Thirty microliter samples were collected at 10, 20, 30, and 60 minutes and analyzed as previously described.

[4] = in the presence of tTG, 50 μM conjugate, 0.5 U/mL tTG, 30 min at 37° C.

T4 sequence (P02751 32-2477, species assumed): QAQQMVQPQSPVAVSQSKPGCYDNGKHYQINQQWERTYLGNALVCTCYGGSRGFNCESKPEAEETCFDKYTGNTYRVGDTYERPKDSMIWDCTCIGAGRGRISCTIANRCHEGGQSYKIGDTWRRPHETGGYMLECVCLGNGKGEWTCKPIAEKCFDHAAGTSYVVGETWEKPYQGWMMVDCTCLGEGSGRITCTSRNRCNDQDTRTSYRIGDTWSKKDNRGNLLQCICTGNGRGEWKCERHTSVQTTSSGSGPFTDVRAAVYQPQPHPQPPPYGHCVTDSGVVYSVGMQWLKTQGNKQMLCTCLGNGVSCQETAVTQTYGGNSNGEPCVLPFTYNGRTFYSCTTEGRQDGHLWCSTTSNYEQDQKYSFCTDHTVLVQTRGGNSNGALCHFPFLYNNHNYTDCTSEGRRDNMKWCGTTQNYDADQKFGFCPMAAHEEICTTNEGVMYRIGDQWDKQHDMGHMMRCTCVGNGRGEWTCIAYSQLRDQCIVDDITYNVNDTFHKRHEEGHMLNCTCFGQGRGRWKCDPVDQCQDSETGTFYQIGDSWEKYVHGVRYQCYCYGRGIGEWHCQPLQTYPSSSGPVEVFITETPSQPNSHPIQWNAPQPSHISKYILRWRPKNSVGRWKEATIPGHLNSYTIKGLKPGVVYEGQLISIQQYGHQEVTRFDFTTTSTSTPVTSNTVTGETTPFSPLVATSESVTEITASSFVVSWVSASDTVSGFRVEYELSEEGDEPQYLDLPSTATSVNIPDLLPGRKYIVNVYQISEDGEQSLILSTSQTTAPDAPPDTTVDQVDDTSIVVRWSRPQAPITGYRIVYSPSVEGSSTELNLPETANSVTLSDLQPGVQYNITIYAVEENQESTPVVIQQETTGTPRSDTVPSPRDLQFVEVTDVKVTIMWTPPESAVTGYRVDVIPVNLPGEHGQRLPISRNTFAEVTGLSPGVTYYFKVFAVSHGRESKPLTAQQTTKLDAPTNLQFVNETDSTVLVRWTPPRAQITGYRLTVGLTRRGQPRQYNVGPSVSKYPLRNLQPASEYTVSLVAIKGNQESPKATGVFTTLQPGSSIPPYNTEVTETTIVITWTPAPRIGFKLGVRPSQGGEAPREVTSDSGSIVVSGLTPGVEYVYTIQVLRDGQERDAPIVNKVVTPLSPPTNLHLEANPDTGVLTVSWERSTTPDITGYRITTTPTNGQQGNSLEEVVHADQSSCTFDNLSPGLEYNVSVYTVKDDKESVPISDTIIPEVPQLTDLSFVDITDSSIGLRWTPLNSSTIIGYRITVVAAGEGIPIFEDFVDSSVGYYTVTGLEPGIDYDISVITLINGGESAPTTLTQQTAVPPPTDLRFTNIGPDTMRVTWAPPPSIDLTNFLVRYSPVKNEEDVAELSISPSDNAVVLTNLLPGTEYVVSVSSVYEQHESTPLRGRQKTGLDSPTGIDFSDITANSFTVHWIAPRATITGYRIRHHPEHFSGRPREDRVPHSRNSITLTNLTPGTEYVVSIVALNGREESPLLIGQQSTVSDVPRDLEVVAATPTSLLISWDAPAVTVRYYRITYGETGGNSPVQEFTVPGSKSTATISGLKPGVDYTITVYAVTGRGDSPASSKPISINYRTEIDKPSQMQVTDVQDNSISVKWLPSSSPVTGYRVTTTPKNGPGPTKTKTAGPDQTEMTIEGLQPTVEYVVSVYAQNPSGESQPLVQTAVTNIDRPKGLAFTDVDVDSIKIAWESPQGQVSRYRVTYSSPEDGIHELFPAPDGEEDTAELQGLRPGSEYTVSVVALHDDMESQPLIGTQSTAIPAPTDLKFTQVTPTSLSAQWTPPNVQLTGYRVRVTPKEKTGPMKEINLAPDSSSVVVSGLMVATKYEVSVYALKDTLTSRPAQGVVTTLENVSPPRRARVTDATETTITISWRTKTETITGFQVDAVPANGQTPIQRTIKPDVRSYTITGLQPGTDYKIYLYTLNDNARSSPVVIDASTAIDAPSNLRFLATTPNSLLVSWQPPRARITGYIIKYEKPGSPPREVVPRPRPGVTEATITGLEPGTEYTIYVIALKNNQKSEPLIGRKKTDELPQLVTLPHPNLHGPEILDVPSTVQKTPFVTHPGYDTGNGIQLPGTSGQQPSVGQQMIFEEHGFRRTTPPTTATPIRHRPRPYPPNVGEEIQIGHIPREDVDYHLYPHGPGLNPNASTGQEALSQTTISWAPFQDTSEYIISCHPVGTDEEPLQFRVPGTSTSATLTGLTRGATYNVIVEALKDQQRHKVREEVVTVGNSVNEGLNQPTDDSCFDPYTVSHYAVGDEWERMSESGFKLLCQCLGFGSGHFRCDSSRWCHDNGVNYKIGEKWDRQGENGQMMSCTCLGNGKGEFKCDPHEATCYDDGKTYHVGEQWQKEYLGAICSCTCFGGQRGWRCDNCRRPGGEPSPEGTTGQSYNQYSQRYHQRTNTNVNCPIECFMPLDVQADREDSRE
T3 sequence (P10451 17-314, species assumed): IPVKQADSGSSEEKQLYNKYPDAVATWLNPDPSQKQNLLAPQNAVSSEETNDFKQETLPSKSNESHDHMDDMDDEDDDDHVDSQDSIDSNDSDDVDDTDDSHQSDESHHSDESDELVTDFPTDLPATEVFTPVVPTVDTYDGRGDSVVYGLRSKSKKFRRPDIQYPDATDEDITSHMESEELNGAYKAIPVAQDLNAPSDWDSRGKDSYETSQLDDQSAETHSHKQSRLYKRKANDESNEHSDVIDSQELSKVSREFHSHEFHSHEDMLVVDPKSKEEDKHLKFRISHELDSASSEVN
T2 sequence (P02458 201-1214 limits assumed): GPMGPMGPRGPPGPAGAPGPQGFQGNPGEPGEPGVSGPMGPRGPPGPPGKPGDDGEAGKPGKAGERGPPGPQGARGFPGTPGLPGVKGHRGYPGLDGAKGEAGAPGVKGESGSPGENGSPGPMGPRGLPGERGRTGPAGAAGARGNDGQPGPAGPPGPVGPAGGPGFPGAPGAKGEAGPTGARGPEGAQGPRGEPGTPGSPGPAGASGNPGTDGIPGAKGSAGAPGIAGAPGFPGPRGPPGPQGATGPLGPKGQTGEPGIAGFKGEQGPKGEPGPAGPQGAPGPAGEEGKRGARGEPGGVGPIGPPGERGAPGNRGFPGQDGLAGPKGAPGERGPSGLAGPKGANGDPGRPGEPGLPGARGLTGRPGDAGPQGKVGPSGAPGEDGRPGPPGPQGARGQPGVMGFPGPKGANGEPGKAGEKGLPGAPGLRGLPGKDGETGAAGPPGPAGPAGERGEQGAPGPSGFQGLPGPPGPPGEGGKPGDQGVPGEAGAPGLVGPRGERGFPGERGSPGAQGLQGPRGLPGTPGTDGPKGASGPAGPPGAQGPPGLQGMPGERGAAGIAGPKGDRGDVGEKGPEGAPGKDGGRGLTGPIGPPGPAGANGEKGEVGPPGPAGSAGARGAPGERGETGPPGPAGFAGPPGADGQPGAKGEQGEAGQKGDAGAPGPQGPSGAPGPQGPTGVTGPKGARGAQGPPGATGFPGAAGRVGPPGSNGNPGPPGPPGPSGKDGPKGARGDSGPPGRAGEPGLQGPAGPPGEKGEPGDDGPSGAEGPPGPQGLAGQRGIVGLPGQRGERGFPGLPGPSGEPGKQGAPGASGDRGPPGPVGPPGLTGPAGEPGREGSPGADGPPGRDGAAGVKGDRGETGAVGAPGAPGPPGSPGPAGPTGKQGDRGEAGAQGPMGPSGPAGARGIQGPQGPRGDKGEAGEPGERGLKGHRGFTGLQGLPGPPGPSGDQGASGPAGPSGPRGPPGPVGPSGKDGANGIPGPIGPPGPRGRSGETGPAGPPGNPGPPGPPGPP

| Compound | coupling to cartilage (anti-biotin fluorescence) (cartilage sections; [4]) | reactivity / normalized band intensity on western blot (osteonectin) | reactivity / normalized band intensity on western blot (collagen II) | reactivity / normalized band intensity on western blot (Fibronectin) | average depth of peptide coupling (cartilage) [μm] | reactivity / normalized band intensity on western blot (osteopontin) | other results |
| --- | --- | --- | --- | --- | --- | --- | --- |
| Biotin-PEG-FKG-NH2 [B72K] | enzymatically crosslinked to the cartilage sections | statistically greater than for B2Q or B72Q | statistically greater than for B2Q or B72Q; also recorded: reactive toward collagen II | statistically greater than for B2Q or B72Q | 9.8 | – | number of conjugate molecules coupled per protein (MALDI-TOF) (osteonectin): up to 4; number of conjugate molecules coupled per protein (MALDI-TOF) (osteopontin): one |
| Biotin-(EO)2-FOG-NH2 [B2O] | no coupling was detected | did not demonstrate crosslinking | did not demonstrate crosslinking | did not demonstrate crosslinking | – | did not demonstrate crosslinking | – |
| C[C@]12CCC(=O)C=C1CC[C@@H]1[C@@H]2[C@@H](O)C[C@@]2(C)[C@H]1CC[C@]2(O)C(=O)CO [hydrocortisone] | – | – | – | – | – | – | immunofluorescence on articular surface (anti-hydrocortisone) ([1]; 1.0 mM): no immunofluorescence was detected; nonspecific adsorption, hydrocortisone detected on the tissue surface [1]: minimal amount of hydrocortisone detected |
| C[C@]12CCC(=O)C=C1CC[C@@H]1[C@@H]2[C@@H](O)C[C@@]2(C)[C@H]1CC[C@]2(O)C(=O)COC(=O)CCC(=O)NCC(=O)N[C@@H](Cc1ccccc1)C(=O)N[C@@H](CCCCN)C(=O)NCC(=O)O [TRIP-C, Hydrocortisone-GFKG prodrug] (X1-GFKG-OH) | – | – | – | – | – | – | hydrocortisone released from tissue-bound prodrug ([2]; 4 to 48 hours, 37° C., Buffer 1, bovine synovial fluid, human OA synovial fluid): statistical increase in the amount of hydrocortisone released; hydrocortisone hydrolysis from coupled prodrug, TRIP-C compared with TRIP-PC ([2]; any of the fluids utilized): no difference in hydrocortisone hydrolysis; T50% ([3]; 1.0 mM, 75% normal synovial fluid in Buffer 1, 37° C.): 11.1 min; times more rapid hydrolysis in synovial fluid than in Buffer 1 ([3]; 37° C.): 4 |
| Biotin-(EO)2-GNNNLG-NH2 [B2N] | no coupling was detected | did not demonstrate crosslinking | did not demonstrate crosslinking | did not demonstrate crosslinking | – | did not demonstrate crosslinking | – |
| Biotin-(EO)2-FKG-NH2 [B2K] | enzymatically crosslinked to the cartilage sections | statistically greater than for B2Q or B72Q | statistically greater than for B2Q or B72Q; also recorded: reactive toward collagen II | statistically greater than for B2Q or B72Q | 13 | – | coupling to cartilage (anti-biotin fluorescence) (cartilage sections; in the absence of tTG): no observed fluorescence; depth of staining (cartilage; undigested cartilage tissue treated with tTG): 5.8 microns |
| Biotin-PEG-G-NH2 [B72] | lack of fluorescence | did not demonstrate crosslinking | did not demonstrate crosslinking | did not demonstrate crosslinking | – | did not demonstrate crosslinking | – |
| Biotin-PEG-GQQQLG-NH2 [B72Q] | enzymatically crosslinked to the cartilage sections | – | less reactive toward collagen II in solution | – | 8.6 | – | number of conjugate molecules coupled per protein (MALDI-TOF) (osteonectin): up to 3; number of conjugate molecules coupled per protein (MALDI-TOF) (osteopontin): up to two |
| Biotin-(EO)2-GQQQLG-NH2 [B2Q] | enzymatically crosslinked to the cartilage sections | – | less reactive toward collagen II in solution | – | 9.8 | significantly greater normalized band intensity than the B2K and B72K | coupling to cartilage (anti-biotin fluorescence) (cartilage sections; in the absence of tTG): no observed fluorescence |
